Measured values: EP0398426A1, “Antirhinoviral (thio)morpholinyl and piperazinyl alkylphenol ethers” (JANSSEN PHARMACEUTICA N.V., priority 1989, dated 1990)
≈ marks a conversion by molar mass, not a printed value.

Assays:
[1] = system: Human Rhinovirus serotypes HRV- 2,-29,-39,-85,-9,-15,-51,-59,-63,-89,-41; test: Picornavirus Minimal Inhibitory Concentration Test (cytopathic effect reduction assay), first panel of rhinoviruses; assay type: cell-based; details: Human rhinovirus sp.; medium value of the IC50-values of all serotypes of the first panel; Ohio Hela cells, 3 to 5 days at 33°C; concentration protecting 50% of the cells from cytopathic effects; read-out: Med₁
Method: (§1) The Minimal Inhibitory Concentration of the compounds of the present invention against the Human Rhinovirus strains (HRV) -2,-9,-14,-15,-29,-39,-41,-42,-45,-51,-59,-63, -70,-72,-85,-86,-89 was determined by a standard cytopathic effect reduction assay as follows. To each of the ninty six (96) wells of a microtiter 96 well tissue culture plate there was added 60 µl of a Ohio Hela cell maintenance medium [Eagle's Basal medium supplemented with 5% Foetal Calf Serum (FCS)]. To two wells there was added 60 µl of an appropriate starting dilution of a compound of formula (I) and two-fold dilutions were made to cover a wide range of compound concentrations. Subsequently there were added 120 µl of an infectious solution of virus in Eagle's Basal Medium with 2% Hepes buffer, 2% FCS and 30 mM MgCl₂ to all wells except cell and compound controls. Said infectious virus solution having a TCID₅₀-value (Tissue Culture Infectious Dose) of about 100.
(§2) The TCID₅₀-value is the dose of viruses which initiates a cytopathic effect in 50% of the inoculated cells. 150 µl of the thus obtained virus-compound mixtures were then transferred to microtitre plates with subconfluent Ohio Hela Cells, grown in 100 µl of maintenance medium. Appropriate virus controls, cell controls and compound controls were included in each test. […] The IC₅₀-value for each virus-compound series was taken as the concentration in ng/ml that protected 50% of the cells from cytopathic effects with respect to the untreated controls. In the standard test procedure, the compounds were tested against two panels of rhinoviruses, a first panel consisting of serotypes HRV- 2,-29,-39,-85,-9,-15,-51,-59,-63,-89,-41 and the other panel consisting of HRV-42,-45,-14,-70,-72 and -86.
(§3) The IC₅₀-value for each rhinovirus serotype was determined, and the efficacy of each compound was determined in terms of the Med₁-value and Med₂-value, which is the medium value of the IC₅₀-values of all serotypes from the first and second panel respectively.

[2] = system: Human Rhinovirus serotypes HRV-42,-45,-14,-70,-72 and -86; test: Picornavirus Minimal Inhibitory Concentration Test (cytopathic effect reduction assay), second panel of rhinoviruses; assay type: cell-based; details: Human rhinovirus sp., HRV42, HeLa, read-out: Med₂
Method: as §1, §2, §3

SMILES	IC50 [1] [ng/mL]	IC50 [2] [ng/mL]
CCOC(=O)c1ccc(OCCC2CN(c3ccc(I)nn3)CCO2)cc1 (stereo not drawn) [compound 20]	2 (≈ 0.00414 µM)	12 (≈ 0.0248 µM)
CCOC(=O)c1ccc(OCCC2CN(c3ccc(SC)nn3)CCO2)cc1 (stereo not drawn) [compound 23, ethyl 4-[2-[4-[6-(methylthio)-3-pyridazinyl]-2-morpholinyl]ethoxy]benzoate]	3 (≈ 0.00743 µM)	12 (≈ 0.0297 µM)
CCOC(=O)c1ccc(OCCC2CN(c3ccc(Br)nn3)CCO2)cc1 (stereo not drawn) [compound 17]	2 (≈ 0.00458 µM)	22 (≈ 0.0504 µM)
CCOC(=O)c1ccc(OCCC2CN(c3ccc(Cl)nn3)CCO2)cc1 (stereo not drawn) [compound 11]	6 (≈ 0.0153 µM)	29 (≈ 0.074 µM)
CCOC(=O)c1ccc(OCCC2CN(c3ccc(C)nn3)CCO2)cc1 (stereo not drawn) [compound 26]	5 (≈ 0.0135 µM)	29 (≈ 0.0781 µM)
CCOC(=O)c1ccc(OCCC2CN(c3nnc(C)s3)CCO2)cc1 (stereo not drawn) [compound 21]	6 (≈ 0.0159 µM)	21 (≈ 0.0556 µM)
